Measurements: US20250099420A1, “SMALL MOLECULE MODULATORS OF GPR139 COMPLEX” (University of Florida Research Foundation, Incorporated, priority 2022, published 2025)

Columns and labels:
parental HEK cells = assay: HEK parental Antagonist Counterscreen Assay (non-transfected cells, acetylcholine control); type: cell-based
GPR139 [1] = target: T1, GPR139 (Homo sapiens, UniProt Q6DWJ6)
T1 sequence (Q6DWJ6 1-353): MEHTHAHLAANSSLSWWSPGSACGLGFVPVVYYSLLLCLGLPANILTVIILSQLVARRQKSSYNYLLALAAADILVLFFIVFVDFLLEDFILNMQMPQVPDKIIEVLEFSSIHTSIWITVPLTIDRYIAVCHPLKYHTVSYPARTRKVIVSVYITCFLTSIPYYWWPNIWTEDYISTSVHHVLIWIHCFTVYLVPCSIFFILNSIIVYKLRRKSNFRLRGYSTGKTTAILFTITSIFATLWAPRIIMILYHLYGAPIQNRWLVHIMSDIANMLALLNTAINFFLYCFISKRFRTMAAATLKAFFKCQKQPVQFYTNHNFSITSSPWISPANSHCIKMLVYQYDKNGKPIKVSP

GPR139 [2] = target: T1, GPR139; assay: GPR139 Agonist titration / agonist counterscreen assay (calcium detection, HEK-GPR139 cells); type: cell-based; set-up: expressed in transfected cells; host or cells: HEK Aequorin cells, Maxcyte transient transfection; details: agonist counterscreen of the antagonists; for EC50: scientific notation, molarity, read-out: GRP139 Agonist activity EC50
Experimental: GPR activity was assessed using a calcium detection assay. […] Negative control samples were treated with DMSO. […] Intracellular calcium was measured using Calcium 5.

GPR139 [3] = target: T1, GPR139; assay: GPR139 Antagonist titration assay (calcium detection, HEK-GPR139 cells, vs EC80 of S-JNJ-63533054); details: for GPR139 Antagonist Activity Averaged Max % Response (±St. Dev.): activity relative to known control; for GPR139 Antagonist Activity Hill Slope: fitted dose-response curve

Row | SMILES | HEK antagonist activity Averaged Max % Response (±St. Dev.) (parental HEK cells) | GPR139 Antagonist Activity Lipophilic Efficiency (logD) (GPR139 [1]) | GPR139 Antagonist Activity Lipophilic Efficiency (logP) (GPR139 [1]) | GRP139 Agonist activity Averaged Max % Response (±St. Dev.) (GPR139 [2]) | EC50 (GPR139 [2]) | GPR139 Antagonist Activity Ligand Efficiency (GPR139 [3]) | GPR139 Antagonist Activity Averaged Max % Response (±St. Dev.) (GPR139 [3]) | GPR139 Antagonist Activity Hill Slope (GPR139 [3]) | GRP139 Agonist activity Hill Slope (GPR139 [2])
1 | CC(C)C(=O)N1CCN(c2nc(-c3ccccc3)c3c(c2C#N)CCCC3)CC1 [SR-01000000597] | 14.40 ± 10.68% | −52.3E−3 | −52.4E−3 | 3.20 ± 6.96% | > 11.2 µM | 0.24 | 54.78 ± 3.56% | 1.21 | 
2 | Cc1cc(C(=O)N/N=C/c2cn(Cc3ccccc3)c3ccccc23)n[nH]1 [SR-01000110742] | 24.28 ± 7.95% | 1.95 | 1.94 | 8.07 ± 1.27% | > 14.1 µM | 0.28 | 90.37 ± 1.31% | 0.68 | 
3 | O=C(Nc1ccccc1C(=O)O)c1ccc(Oc2ccc([N+](=O)[O-])cc2)cc1 [SR-01000201144] | 81.74 ± 3.36% | 4.02 | 0.66 | 19.36 ± 5.93% | > 14.1 µM | 0.27 | 67.66 ± 7.67% | 2.60 | 
4 | O=C(CSc1nc(-c2ccccc2)cn1-c1ccccc1)Nc1ccc(F)cc1 [SR-01000555394] | 31.37 ± 1.24% | −672.3E−3 | −672.4E−3 | −854E−3 ± 6.10 ^ % | > 14.5 µM | 0.25 | 71.06 ± 5.55% | 0.45 | 
5 | COc1ccc(-n2cc(-c3ccccc3)nc2SCC(=O)Nc2ccccc2C)cc1 [SR-01000555409] | 31.02 ± 1.30% | −708.8E−3 | −708.9E−3 | −4.8E+0 ± 5.84 ^ % | > 13.6 µM | 0.24 | 86.26 ± 1.14% | 0.79 | 
6 | COc1ccccc1-n1cc(-c2ccccc2)nc1SCC(=O)Nc1cccc(C)c1C [SR-01000555431] | 3.15 ± 12.32% | −548.5E−3 | −548.6E−3 | 12.88 ± 6.35% | > 13.2 µM | 0.26 | 78.69 ± 5.10% | 0.44 | 
7 | Cc1ccc(-c2cn(-c3ccccc3)c(SCC(=O)Nc3ccccc3C)n2)cc1 [SR-01000555444] | 6.69 ± 8.37% | −1.5E+0 | −1.5E+0 | 4.27 ± 6.30% | > 11 µM | 0.24 | 69.32 ± 5.67% | 1.62 | 
8 | Cc1ccc(-n2cc(-c3ccccc3)nc2SCC(=O)Nc2ccccc2)cc1 [SR-01000555455] | 6.61 ± 6.46% | −1.3E+0 | −1.3E+0 | 2.28 ± 5.10% | > 13.3 µM | 0.24 | 52.97 ± 3.58% | 0.71 | 
9 | Cc1ccc(-n2cc(-c3ccccc3)nc2SCC(=O)Nc2cccc(C)c2C)cc1 [SR-01000555460] | 8.34 ± 10.04% | −1.9E+0 | −1.9E+0 | 7.97 ± 3.98% | > 11.9 µM | 0.24 | 69.58 ± 6.90% | 1.30 | 
10 | Cc1ccc(-n2cc(-c3ccccc3)nc2SCC(=O)Nc2ccc(F)cc2)cc1 [SR-01000555461] | 0.37 ± 8.79% | −954.3E−3 | −954.4E−3 | 5.29 ± 2.24% | > 14 µM | 0.25 | 77.29 ± 7.71% | 1.40 | 
11 | Cc1cccc(-n2cc(-c3ccccc3)nc2SCC(=O)Nc2ccccc2C)c1 [SR-01000555475] | 9.07 ± 0.74% | −768.6E−3 | −768.8E−3 | 13.90 ± 4.27% | > 13.2 µM | 0.28 | 90.42 ± 3.10% | 0.57 | 
12 | Cc1ccc(CNC(=O)CSc2nc3ccsc3c(=O)n2NC(=O)c2cccc(Br)c2)cc1 [SR-01000564946] | 30.88 ± 11.77% | 0.81 | 0.81 | 1.62 ± 7.06% | > 12.1 µM | 0.24 | 86.39 ± 3.49% | 0.71 | 
13 | O=C(NCCCN1CCCC1=O)c1ccc(NCc2ccc(F)cc2)c(S(=O)(=O)Nc2cccc(C(F)(F)F)c2)c1 [SR-01000575726] | 42.61 ± 24.54% | 2.05 | 1.85 | 4.26 ± 2.46% | > 13.9 µM | 0.18 | 68.96 ± 6.17% | 0.63 | 
14 | CCc1ccccc1NC(=O)CSc1nnc(-c2ccccc2)c(-c2ccccc2)n1 [SR-01000581835] | 8.20 ± 4.35% | −850.1E−3 | −850.1E−3 | 9.47 ± 9.31% | > 12.1 µM | 0.23 | 81.12 ± 9.72% | 0.67 | 
15 | COc1ccc(C2=NN(C3CCCCCC3)C(=O)[C@@H]3CC=CC[C@@H]23)cc1OCCCCOc1ccc(-c2nn[nH]n2)cc1 [SR-05000022540] | 6.21 ± 10.10% | −546.E−3 | −780.8E−3 | 96.44 ± 1.50% | 13.2 µM | 0.18 | 94.71 ± 3.14% | 0.39 | 10.54
